# Assay results taken from ChEMBL document CHEMBL1132014, “Novel 1,2,3,4-tetrahydroisoquinolines with high affinity and selectivity for the dopamine D3 receptor” (Bioorg Med Chem Lett, 1999).
# What was measured:
# D(2) dopamine receptor [1] = biological target: T1, D(2) dopamine receptor (Homo sapiens, UniProt P14416); assay: Displacement [125I]iodosulpiride from human Dopamine receptor D2 expressed in CHO cells; assay type: cell-based
# D(3) dopamine receptor [2] = biological target: T2, D(3) dopamine receptor (Homo sapiens, UniProt P35462); assay: Displacement of [125I]iodosulpiride from human Dopamine receptor D3 expressed in CHO cells; assay type: cell-based
# D(2) dopamine receptor [3] = biological target: T1, D(2) dopamine receptor; assay: In vitro functional antagonist effect by its affinity to bind to Dopamine receptor D2
# [4] = Pharmacokinetic property (blood clearance) in rat; assay type: ADME, organism-based
# [5] = Half life in rat; assay type: ADME, organism-based; conditions: in vivo
# D(3) dopamine receptor [6] = biological target: T2, D(3) dopamine receptor; assay: In vitro functional antagonist effect by its affinity to bind to Dopamine receptor D3
# [7] = Pharmacokinetic property (CLb)of the compound was determined in rat; assay type: ADME, organism-based; conditions: blood, read-out: CLb
# T1 sequence (P14416 whole entry): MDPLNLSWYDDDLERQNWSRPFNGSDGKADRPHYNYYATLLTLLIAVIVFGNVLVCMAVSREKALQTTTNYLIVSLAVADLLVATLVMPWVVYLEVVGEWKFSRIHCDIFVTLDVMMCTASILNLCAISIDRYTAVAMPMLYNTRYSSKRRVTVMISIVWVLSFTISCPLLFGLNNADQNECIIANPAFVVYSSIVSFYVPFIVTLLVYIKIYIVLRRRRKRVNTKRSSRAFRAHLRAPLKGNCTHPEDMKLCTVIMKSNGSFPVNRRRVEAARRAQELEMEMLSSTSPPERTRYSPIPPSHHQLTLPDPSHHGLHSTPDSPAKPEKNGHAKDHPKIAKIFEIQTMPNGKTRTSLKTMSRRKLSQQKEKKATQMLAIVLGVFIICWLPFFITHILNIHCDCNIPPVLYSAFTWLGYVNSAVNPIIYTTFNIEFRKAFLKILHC
# T2 sequence (P35462 whole entry): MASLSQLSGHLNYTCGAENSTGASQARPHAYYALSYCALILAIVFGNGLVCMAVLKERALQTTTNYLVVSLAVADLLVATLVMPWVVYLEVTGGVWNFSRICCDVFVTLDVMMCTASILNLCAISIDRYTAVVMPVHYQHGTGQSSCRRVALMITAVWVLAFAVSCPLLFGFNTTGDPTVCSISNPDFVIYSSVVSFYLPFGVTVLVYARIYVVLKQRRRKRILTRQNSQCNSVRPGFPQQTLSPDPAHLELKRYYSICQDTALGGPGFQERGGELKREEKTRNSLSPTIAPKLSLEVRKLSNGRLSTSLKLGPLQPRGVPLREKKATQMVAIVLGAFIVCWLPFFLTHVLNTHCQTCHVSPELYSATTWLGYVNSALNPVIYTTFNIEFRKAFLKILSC
Ki (D(2) dopamine receptor [1]),Ki (D(3) dopamine receptor [2]),SMILES,other results
0.316 µM,0.00316 µM,COc1cccc(/C=C/C(=O)NCCCCN2CCc3ccc(OS(=O)(=O)C(F)(F)F)cc3C2)c1,–
1 µM,0.00501 µM,O=C(/C=C/c1ccc2ccccc2c1)NCCCCN1CCc2ccc(OS(=O)(=O)C(F)(F)F)cc2C1,–
0.501 µM,0.00398 µM,CN(C)c1ccc(/C=C/C(=O)NCCCCN2CCc3ccc(OS(=O)(=O)C(F)(F)F)cc3C2)cc1,–
0.316 µM,0.00501 µM,O=C(/C=C/c1ccccc1)NCCCCN1CCc2ccc(OS(=O)(=O)C(F)(F)F)cc2C1,–
0.316 µM,0.00398 µM,COc1ccc(/C=C/C(=O)NCCCCN2CCc3ccc(OS(=O)(=O)C(F)(F)F)cc3C2)cc1,–
0.158 µM,0.00251 µM,O=C(/C=C/c1ccc2nc(O)ccc2c1)NCCCCN1CCc2ccc(OS(=O)(=O)C(F)(F)F)cc2C1,–
0.316 µM,0.0398 µM,O=C(/C=C\c1ccccc1)NCCCCN1CCc2ccc(OS(=O)(=O)C(F)(F)F)cc2C1,–
0.398 µM,0.00398 µM,CC(=O)c1cccc(/C=C/C(=O)NCCCCN2CCc3ccc(OS(=O)(=O)C(F)(F)F)cc3C2)c1,–
0.316 µM,0.01 µM,Cn1c(=O)ccc2cc(/C=C/C(=O)NCCCCN3CCc4ccc(OS(=O)(=O)C(F)(F)F)cc4C3)ccc21,–
0.2 µM,0.002 µM,O=C(/C=C/c1ccc2[nH]ccc2c1)NCCCCN1CCc2ccc(OS(=O)(=O)C(F)(F)F)cc2C1,–
0.251 µM,0.00316 µM,O=C(/C=C/c1ccc2ncccc2c1)NCCCCN1CCc2ccc(OS(=O)(=O)C(F)(F)F)cc2C1,–
0.251 µM,0.00398 µM,CC(=O)c1ccc(/C=C/C(=O)NCCCCN2CCc3ccc(OS(=O)(=O)C(F)(F)F)cc3C2)cc1,–
0.316 µM,0.00398 µM,O=C(/C=C/c1cnc2ccccc2c1)NCCCCN1CCc2ccc(OS(=O)(=O)C(F)(F)F)cc2C1,–

# Further lines, the molecule ahead of its results:
SMILES,Ki (D(2) dopamine receptor [1]),Ki (D(3) dopamine receptor [2]),other results
O=C(NCCCCN1CCc2ccc(OS(=O)(=O)C(F)(F)F)cc2C1)c1cccc(-c2ccccc2)c1,0.501 µM,0.126 µM,–
CC(=O)c1ccc(-c2ccc(C(=O)NCCCCN3CCc4ccc(OS(=O)(=O)C(F)(F)F)cc4C3)cc2)cc1,0.2 µM,0.00251 µM,–
O=C(/C=C/c1c[nH]c2ccccc12)NCCCCN1CCc2ccc(OS(=O)(=O)C(F)(F)F)cc2C1,0.631 µM,0.00398 µM,pKb (D(2) dopamine receptor [3]): 6.6; clearance [4]: 1.62 L/h/kg; half-life [5]: 2.5 h; pKb (D(3) dopamine receptor [6]): 8.9
O=C(NCCCCN1CCc2ccc(OS(=O)(=O)C(F)(F)F)cc2C1)c1ccc(-c2ccc(N3CCCC3=O)cc2)cc1,0.126 µM,0.00251 µM,–
Cc1nnc(-c2ccc(-c3ccc(C(=O)NCCCCN4CCc5ccc(OS(=O)(=O)C(F)(F)F)cc5C4)cc3)cc2)o1,0.1 µM,0.002 µM,–
Cc1cc(C(=O)NCCCCN2CCc3ccc(OS(=O)(=O)C(F)(F)F)cc3C2)ccc1-c1ccccc1,1 µM,0.0501 µM,–
O=C(/C=C/c1ccc2ccccc2n1)NCCCCN1CCc2ccc(OS(=O)(=O)C(F)(F)F)cc2C1,0.398 µM,0.00398 µM,–
CNC(=O)c1cccc(-c2ccc(C(=O)NCCCCN3CCc4ccc(OS(=O)(=O)C(F)(F)F)cc4C3)cc2)c1,0.126 µM,0.002 µM,–
CNC(=O)c1ccc(-c2ccc(C(=O)NCCCCN3CCc4ccc(OS(=O)(=O)C(F)(F)F)cc4C3)cc2)cc1,0.1 µM,0.00251 µM,–
O=C(NCCCCN1CCc2ccc(OS(=O)(=O)C(F)(F)F)cc2C1)c1ccc(-c2ccccc2)cc1,0.501 µM,0.00794 µM,–
Cc1ccccc1-c1ccc(C(=O)NCCCCN2CCc3ccc(OS(=O)(=O)C(F)(F)F)cc3C2)cc1,1.58 µM,0.0501 µM,–
O=C(NCCCCN1CCc2ccccc2C1)c1ccc(-c2ccccc2)cc1,0.501 µM,0.0251 µM,clearance [7]: 1.2 L/h/kg
CCCN(CCCCNC(=O)c1ccc(-c2ccccc2)cc1)C1CCc2c(Cl)cccc2C1 (stereo unspecified),–,–,clearance [7]: 4.8 L/h/kg
